Legend:
Aβ plaques [1] = molecular target: T1, Aβ plaques (Homo sapiens, UniProt P05067); assay: Histological staining of human AD brain tissue sections
Procedure: To further assess ability of the 5 to label Aβ plaques in human brain, staining experiments were also performed with postmortem tissues from clinically-characterized AD patients[35][36] As a positive control, a highly specific anti-Aβ antibody (10D5, Eli Lilly, Indianapolis, IN) was used to ascertain the presence of Aβ plaques (Fig. 4A), using well-established procedures for assessment of Aβ plaques in postmortem brain[37]. […] Noticeably, 5 also indicated proficient and distinct labeling of plaque and leptomeningeal vessels (cerebral amyloid angiopathy; CAA) (Fig. 4B). […] This high specificity of 5 for Aβ could be attributed to presence of a benzoselenazole ring within Fluselenamyl. Overall, the ability and sensitivity of 5 to detect diffuse plaques and specificity for AD could represent an important advancement to enable PET imaging of mildly demented individuals, prior to onset of symptoms.
(§1) Scientific Reports Version of August 4, 2016
(§2) µm) were cut in the coronal plane on a freezing sliding microtome and stored at -20°C. 7,8 Tissue was stained as free-floating sections. Prior to staining, tissue sections were permeabilized with PBS-Tritron-X-100 (0.25%) for 30 minutes, and then blocked with 1% non-fat dry milk in PBS-Ttiton-X-100 for 60 minutes.
Hippocampus tissue sections of APP+/-/PS1+/- and age-matched control BL/6 (WT, SI Figure 3) were incubated with fluorescent molecule 5 (100 nM dissolved in 1% ethanol in PBS) for 60 minutes, and washed 3-times with PBS-Triton-X-100.9 Thereafter, tissue sections were incubated with mouse-anti-Aβ (mHJ3.4) 7 that was directly conjugated to Alexa 568 for 90 minutes and washed 3-times with PBS-Triton-X-100.
Tissue sections were mounted onto SuperFrost Plus slides, dried overnight at room temperature, and then sealed with Fluoromount G (Southern Biotech, Birmingham, AL). […]
other neurodegenerative diseases (SI, Figure 4A & 4B). Sections were visualized, processed, and analyzed using a Pascal confocal microscope. […]

Aβ plaques [2] = molecular target: T1, Aβ plaques; assay: Histochemical staining of mouse brain hippocampus sections; set-up: species or system mice; settings: 10 months old
Source text: Aβ imaging ligands and disease-modifying therapeutics have been investigated using APP^+/−/PS1^+/− transgenic mice models. Further, we assessed the ability of 5 to stain ex vivo brain sections (50 μm) of age-matched APP^+/−/PS1^+/− mice and their WT (BL/6) counterparts, using established procedures. As a positive control, anti-Aβ monoclonal antibody (mHJ3.4 conjugated to Alexa Fluor 568) was used[34]. […] By comparison, 5 indicated no staining in 10 months old WT mice (SI, Fig. 3) thus indicating its target specificity.
as §1, §2
Hippocampus tissue sections of APP+/-/PS1+/- and age-matched control BL/6 (WT, SI Figure 3) were incubated with fluorescent molecule 5 (100 nM dissolved in 1% ethanol in PBS) for 60 minutes, and washed 3-times with PBS-Triton-X-100.9 Thereafter, tissue sections were incubated with mouse-anti-Aβ (mHJ3.4) 7 that was directly conjugated to Alexa 568 for 90 minutes and washed 3-times with PBS-Triton-X-100. […]

Aβ1–42 fibrils = molecular target: T2, Aβ1–42 fibrils (Homo sapiens, UniProt P05067); assay: Saturation binding of [18F]-9 with Aβ1–42 fibrils
T2 construct: Commercially available amyloid peptide Aβ1-42; purchased
T2 sequence (P05067 672-713 limits assumed): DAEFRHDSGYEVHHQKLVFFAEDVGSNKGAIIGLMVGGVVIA
Procedure: For assessing the ability of [^18F]-9 to bind Aβ plaques; binding assays with either AD homogenates or preformed Aβ1–42 aggregates were performed in 30 mM Tris, pH 7.4 buffer supplemented with 0.1% BSA[39]. Nonspecific binding was determined in the presence of 5 (1 μM) as a competitor.
as §1
Binding assays were performed using previously described methods.11 Briefly, a fixed concentration (0.25 µM/well) of Aβ1–42 fibrils was incubated for 1 h at 37 °C with increasing concentrations of [18F]-9 (0.1 nM-15 nM) in 30 mM Tris-HCl pH 7.4, 0.1% BSA in a reaction volume of 150 µl. […] The exact hot:cold ([18F]-9 : 5) ratio was measured in each experiment by counting an aliquot of a sample (2 µl) of the radioligand preparation in a scintillation counter. Binding of [18F]-9 to human brain homogenates was assessed by incubating samples of insoluble fraction (1.25 µg insoluble protein/well) from AD subjects, with increasing concentrations of [18F]-9 (0.1nM-18 nM) for 1 h at 37 °C. Nonspecific binding was determined in parallel experiments in the presence of 5 (1 µM) as a competitor. […] Glass fiber filters containing the bound ligand were mixed with Optiphase Supermix scintillation cocktail (150µl; PerkinElmer) and counted immediately. […]
Bmax values were calculated in pmol/gram wet weight of brain tissue. […]

T1 sequence (P05067 672-711 limits assumed): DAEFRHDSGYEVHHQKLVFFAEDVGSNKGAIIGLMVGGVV

SMILES	labeling of Aβ plaques in frontal lobe tissue sections (Aβ plaques [1]; 2 μM, person with AD)	staining of diffuse plaques (Aβ plaques [1]; AD frontal lobe sections)	staining of Aβ plaques in hippocampus brain sections (Aβ plaques [2]; 100 nM, APP+/−/PS1+/− mice)	staining of brain sections (Aβ plaques [2]; WT mice)	Bmax (Aβ1–42 fibrils)	Kd (Aβ1–42 fibrils; 30 mM Tris pH 7.4, 0.1% BSA, one-site model)
CN(C)c1ncc(/C=C\c2nc3cc(OCCF)ccc3[se]2)cn1 [compound 5, (Z)-5-(2-(5-(2-fluoroethoxy)benzo[d][1,3]selenazol-2-yl)vinyl)-N,N-dimethylpyrimidin-2-amine]	strikingly distinct labeling of Aβ plaques	labeling of numerous diffuse Aβ plaques	abundant staining of Aβ plaques	no staining	–	–
CN(C)c1ncc(/C=C\c2nc3cc(OCC[18F])ccc3[se]2)cn1 [[^18F]-9]	–	–	–	–	1.3 pmol/nmol	1.6 nM
